Values of other authors in US8193152B2 (priority 2004, dated 2012).
Where two headings read alike, the source gives them in different places.

Legend:
[1] = tested on: mycobacterial infection; details: mouse, in vivo
[2] = in vivo
[3] = tested on: thymocyte and lymphocyte
[4] = tested on: spleen lymphocytes
[5] = tested on: mycobacteria; details: human, in vivo
[6] = in vivo; remark: listed apart in the source
[7] = tested on: bone marrow cells
[8] = tested on: PIC; details: guinea pig, in vivo
[9] = tested on: Machupo; details: rhesus monkey, in vivo

Molecule: N[C@H](CCC(=O)N[C@@H](Cc1c[nH]c2ccccc12)C(=O)O)C(=O)O [SCV-07, γ-D-glutamyl-L-tryptophan]
- IFNγ production by Con-A-induced spleen cells [1]: higher
- IL-4 production by Con-A-induced spleen cells [1]: lower
- Phagocytic activity by peritoneal macrophages [1]: markedly increased
- lung damage [1]: significantly decrease
- immunostimulatory effect [2]: strong immunostimulatory effect
- Con-A-induced thymocyte and lymphocyte proliferation [3]: increases
- Con-A-induced interleukin-2 (IL-2) production [4]: increases
- IL-2 receptor expression [4]: increases
- cavity healing and symptoms of tuberculosis [5]: positive effect
- drug-induced adverse effects [5]: without any drug-induced adverse effects
- incidence of mycobacteria-negative sputum cultures [5]: increased
- immunostimulatory effect [6]: strong immunostimulatory effect
- expression of Thy-1.2 [7]: stimulates expression

Molecule: NC(=O)c1ncn([C@@H]2O[C@H](CO)[C@@H](O)[C@H]2O)n1 [ribavirin, Ribavirin, reference compound]
- time to death [8]: prolonged

Molecule: IFNα
- mortality [8]: No significant improvement in mortality

Molecule: poly (ICLC)
- Overall mortality and time to death [9]: not improved
- viremia [9]: significantly higher
